Test results taken from patent US10555535B2, “Pest control composition and pest control method” (SUMITOMO CHEMICAL COMPANY, LIMITED, priority 2015, dated 2020).

Assays:
[1] = test system: Aphis gossypii; assay: Test Example 12: treated soybean seeds, controlling effect on Aphis gossypii; assay type: in vivo
Protocol: In a rotary seed treatment machine (trade name: HEGE11, manufactured by WINTERSTEIGER), soybean seeds (variety:“Hatayutaka”) were treated by smearing treatment using flowable formulation of the present bacterial strain obtained in Formulation Example 14, flupyradifurone liquid formulation (20.0% liquid formulation, trade name: SIVANTO200, Bayer CropScience), thiacloprid flowable formulation (40.0% flowable formulation, trade name: Sonido, Bayer CropScience), thiamethoxam flowable formulation (47.6% flowable formulation, trade name: Cruiser 5FS, Syngenta Crop Protection LCC), so that the soybean seeds retain the present bacterial strain and the compound in the amount shown in Table 5.
Twenty Aphis gossypii were released on the 14th day after the seeding, and the number of living Aphis gossypii was counted on the 5th day after the release. Similar procedures were conducted using untreated soybean seeds, instead of the treated soybean seeds, as described above for the treated compartment (“untreated compartment”).
Based on the numbers of survivors in the treated compartment and the untreated compartment, the effect in the treated compartment was calculated by the following equation. Controlling effect=100×[(number of survivors in untreated compartment−number of survivors in treated compartment)/number of survivors in untreated compartment]
(§1) If the effect by the combination of two active ingredients is greater than that of the estimated value E, which is calculated by the Colby's equation as follows, the effect is regarded as synergistic. E=X+Y−X·Y/100 wherein, • E=Controlling effect when using the mixture of the active ingredients A and B at the concentrations m and n (amount of the active ingredient), respectively. • X=Controlling effect when using the active ingredient A at the concentration m (amount of the active ingredient). • Y=Controlling effect when using the active ingredient B at the concentration n (amount of the active ingredient).

[2] = test system: Diabrotica virgifera virgifera; assay: Test Example 13: treated corn seeds, controlling effect on Diabrotica virgifera virgifera larvae; assay type: in vivo
Protocol: as §1
In a rotary seed treatment machine (trade name: HEGE11, manufactured by WINTERSTEIGER), corn seeds (variety: yellow dent corn) were treated by smearing treatment using the wettable powder of the present bacterial strain obtained in Formulation Example 13 or clothianidin flowable formulation (47.8% flowable formulation, trade name: NipsIt Inside Insecticide, Valent U.S.A. Corporation), or imidacloprid flowable formulation (48.7% flowable formulation, trade name: Gaucho 600, Bayer CropScience), so that the corn seeds thus treated retain the present bacterial strain, clothianidin or imidacloprid in the amount shown in Table 6.
In a rotary seed treatment machine (trade name: HEGE11, manufactured by WINTERSTEIGER), the corn seeds thus treated with clothianidin or imidacloprid were treated by wet powder coating with a wettable powder of the present bacterial strain as obtained in Formulation Example 13, so that the […] thus treated retain the present bacterial strain and clothianidin or the present bacterial strain and imidacloprid in the amount shown in Table 6.
Newly hatched larvae of Diabrotica virgifera virgifera are released (10 for each stalk of corn) on the 7th day after the seeding, and the number of living Diabrotica virgifera virgifera was counted on the 10th day after the release. Similar procedures were conducted using untreated corn seeds, instead of the treated corn seeds, as described above for the treated compartment (“untreated compartment”).
Based on the numbers of survivors in the treated compartment and the untreated compartment, the effect in the treated compartment was calculated by the following equation. Controlling effect=100×[(number of survivors in untreated compartment number of survivors in treated compartment)/number of survivors in untreated compartment]

Structure (SMILES): CN1COCN(Cc2cnc(Cl)s2)/C1=N\[N+](=O)[O-] [Thiamethoxam, thiamethoxam]
- Controlling Effect ([1]; soybean seeds retaining 0.15 g /Kg seeds): 70.6
- Controlling Effect ([1]; soybean seeds retaining 0.25 g /Kg seeds): 78.4

Structure (SMILES): CN/C(=N\[N+](=O)[O-])NCc1cnc(Cl)s1 [Clothianidin, clothianidin]
- Controlling Effect ([2]; corn seeds retaining 0.6 g /Kg seeds): 41.4
- Controlling Effect ([2]; corn seeds retaining 1.2 g /Kg seeds): 64.3

Structure (SMILES): O=[N+]([O-])NC1=NCCN1Cc1ccc(Cl)nc1 [Imidacloprid, imidacloprid]
- Controlling Effect ([2]; corn seeds retaining 2.0 g /Kg seeds): 51.4
- Controlling Effect ([2]; corn seeds retaining 2.5 g /Kg seeds): 62.8

Structure (SMILES): N#C/N=C1\SCCN1Cc1ccc(Cl)nc1 [Thiacloprid, thiacloprid]
- Controlling Effect ([1]; soybean seeds retaining 0.3 g /Kg seeds): 56.9
- Controlling Effect ([1]; soybean seeds retaining 0.45 g /Kg seeds): 69.0

Structure (SMILES): O=C1C=C(N(Cc2ccc(Cl)nc2)CC(F)F)CO1 [Flupyradifurone, flupyradifurone]
- Controlling Effect ([1]; soybean seeds retaining 0.2 g /Kg seeds): 65.9
- Controlling Effect ([1]; soybean seeds retaining 0.4 g /Kg seeds): 77.6
